Test results taken from US20260069626A1, “Compositions and Methods to Protect and Enhance Structural and Functional Integrity of the Intestinal Glycocalyx” (Calroy Health Sciences, LLC, priority 2023, published 2026).

Assays:
[1] = system: mouse intestinal glycocalyx; test: DSS-treated mice: WGA-FITC immunofluorescence of colon glycocalyx (Example 3); format: in vivo; conditions: for Average Florescence Intensity of Mouse Intestinal Glycocalyx after WGA-FITC Staining (AVI): oral mg/kg/day per Table IV: single agents 100, 3′-SL + 6′-SL 100 each, HMOs 50 each + COS 100; for mouse intestinal glycocalyx (FIG. 8, FIG. 9): oral, doses of Table IV
Method: Male C57BL/6J mice (18-20 g) of 6 weeks old were housed under controlled conditions with a constant temperature (23±2° C.), stable humidity, and a 12-hour light/dark cycle. After a one-week acclimatization period, the mice were randomly divided into 7 groups, with 5 mice per group: Control, DSS, DSS+3′-SL, DSS+6′-SL, DSS+5-ASA, DSS+6′-SL+3′-SL, and DSS+HMOs+COS. The control group received sterile water for 19 days. The DSS group was given 4% (wt/vol) DSS in their drinking water from days 8-14, with daily oral gavage of sterile water for 11 days. The other groups were treated with 3% DSS in their drinking water from days 8-14, along with oral administration of various functional glycans (mg/kg/day) of COS up to the 19th day (See Experimental Design in Table III). The DSS solution was replaced every two days to maintain its bioactivity. Mouse body weight, stool consistency, and rectal bleeding were monitored daily, alongside observations of coat sheen, mental state, and activity levels.
Immunofluorescence staining of mouse colon tissue was performed using the following procedure. Paraffin sections were prepared from the distal colon, 1 cm from the anus. Deparaffinization and rehydration were performed with xylene and ethanol, as follows: xylene (5 min×2), 100% ethanol (5 min×2), 90% ethanol (5 min×1), 80% ethanol (5 min×1), 70% ethanol (5 min×1), and deionized water (10 s). Endogenous peroxidase activity was quenched with 0.75% hydrogen peroxide for 10 minutes, followed by PBS washes. Antigen retrieval was performed by boiling the sections in 0.01 mol/L sodium citrate for 30 minutes. For WGA staining, sections were incubated overnight at 4° C. with 0.1 μg/μL FITC-WGA in PBS (40 μL per sample). After washing with PBS, nuclei were counterstained with DAPI and sections were mounted with an anti-fade medium. The stained sections were visualized under a fluorescence microscope, and the colonic mucosal glycocalyx was quantified using ImageJ software.

[2] = system: Caco-2 intestinal epithelial cell glycocalyx; test: Prevention/repair of DSS damage to Caco-2 glycocalyx, microfluidic chip, WGA-FITC (Example 2); format: cell-based; conditions: 2% DSS, single agents 200 μg/ml, 6′-SL and 3′-SL each 100 μg/ml, 100 μg/ml COS with 50 μg/ml each of 6′-SL, 2′-FL
Method: Using the same microfluidic chip model in Example 1, different functional glycans of RS, COS and hMO, and some combinations were evaluated for their capability to prevent and repair the damages of Caco-2 intestinal epithelial cell glycocalyx caused by DSS. […] In addition to DSS, a positive control of 5-aminosalicylic acid (5-ASA), RS, COS, different hMOS, and a combination of hMOs and COS at different concentrations in phosphate-buffered saline (PBS) with water were introduced into microfluidic chips for testing their effects on the intestinal glycocalyx in the presence of DSS.
FIG. 1 depicts the images of the intestinal epithelial cell glycocalyx and nucleus stained by WGA-FITC individually and together. […] Briefly, 2% DSS caused a significant decrease of intestinal glycocalyx as measured by WGA fluorescence intensity.

[3] = system: C57BL/6J mice treated with DSS; test: DSS-treated mice: body weight and Disease Activity Index (Example 3); format: in vivo, mouse; conditions: oral, doses of Table IV
Method: Male C57BL/6J mice (18-20 g) of 6 weeks old were housed under controlled conditions with a constant temperature (23±2° C.), stable humidity, and a 12-hour light/dark cycle. After a one-week acclimatization period, the mice were randomly divided into 7 groups, with 5 mice per group: Control, DSS, DSS+3′-SL, DSS+6′-SL, DSS+5-ASA, DSS+6′-SL+3′-SL, and DSS+HMOs+COS. The control group received sterile water for 19 days. The DSS group was given 4% (wt/vol) DSS in their drinking water from days 8-14, with daily oral gavage of sterile water for 11 days. […] Mouse body weight, stool consistency, and rectal bleeding were monitored daily, alongside observations of coat sheen, mental state, and activity levels. The Disease Activity Index (DAI) was used to assess colitis severity, calculated as the mean of the scores for weight loss, stool consistency, and rectal bleeding as described below. Mice were weighed daily at the same time, with the percentage of weight loss compared to the end of the acclimation period: <1% scored 0; 1-5% scored 1; 5-10% scored 2; 10-20% scored 3; >20% scored 4. Stool consistency was also evaluated daily: normal stool scored 0; soft but formed stool scored 1; paste-like stool scored 2; liquid stool scored 3. […] The DAI was calculated as the average of these three scores. […]

Compound	Average Florescence Intensity of Mouse Intestinal Glycocalyx after WGA-FITC Staining (AVI) [1]	mouse intestinal glycocalyx (FIG. 8, FIG. 9) [1]	damage of the intestinal glycocalyx caused by DSS (WGA fluorescence intensity, FIG. 1-2) [2]	DAI at the end of the study compared to DSS only (FIG. 6) [3]	body weight at the end of the study compared to DSS only (FIG. 4) [3]
CC(=O)N[C@H]1[C@H]([C@H](O)[C@H](O)CO)O[C@@](O[C@H]2[C@@H](O)[C@@H](CO)O[C@@H](O[C@H]3[C@H](O)[C@@H](O)C(O)O[C@@H]3CO)[C@@H]2O)(C(=O)O)C[C@@H]1O (stereo partly drawn) [3′-SL, 3′-sialyllactose]	2.45	increased	–	–	–
Nc1ccc(O)c(C(=O)O)c1 [5-ASA, 5-aminosalicylic acid, reference compound]	2.56	–	significantly prevented the damage	significantly reduced	significant increase
CC(=O)N[C@H]1[C@H]([C@H](O)[C@H](O)CO)O[C@@](OC[C@H]2O[C@@H](O[C@H]3[C@H](O)[C@@H](O)[C@H](O)O[C@@H]3CO)[C@H](O)[C@@H](O)[C@H]2O)(C(=O)O)C[C@@H]1O [6′-SL, 6′-sialyllactose]	2.75	increased	significantly prevented the damage	–	–
